{"source": "patent US20160115447A1", "about": "“COMPOSITIONS AND METHODS FOR IMPROVING INDUCED NEURON GENERATION” (PRESIDENT AND FELLOWS OF HARVARD COLLEGE, priority 2013, published 2016)", "key": {"[1]": {"test_system": "FACS-sorted iMNs"}, "[2]": {"test_system": "Hb9::GFP+ intermediates exhibiting a non-neuronal morphology", "settings": "FIG. 6"}, "[3]": {"test_system": "human fibroblasts", "settings": "FIG. 7"}, "[4]": {"test_system": "fibroblasts transduced with Ascl1, Myt1l, and Brn2", "text": "To determine if Activin inhibition increases conversion into other neuronal types, fibroblasts were transduced with Ascl1, Myt1l, and Brn2, transcription factors that induce the formation of non-motor neurons, and cultured the cells with or without the Activin inhibitor."}, "[5]": {"test_system": "mouse adult fibroblasts", "assay": "transcription factor-mediated conversion of mouse adult fibroblasts into Hb9::GFP+ spinal motor neurons (iMN conversion screen)", "assay_type": "cell-based", "settings": "days 1-5, 6-10 or 11-15 of reprogramming, FIG. 4", "text": "FIGS. 1A and 1B illustrate the screens performed to identify small molecule enhancers of induced motor neuron (iMN) conversion. FIG. 1A is a schematic illustration depicting the primary screen for small molecules enhancers of iMN conversion via viral transduction with 7 transcription factors performed on fibroblasts harvested from 2 month old Hb9::GFP mice. FIG. 1B is a graphical illustration depicting the results of a secondary screen performed on the top hits identified by the primary screen depicted in FIG. 1A, pointing to two lead compounds as effective enhancers of iMN conversion.\nTo this end, a functional reprogramming screen was used to identify small molecules that increase the rate of transcription factor-mediated conversion of mouse adult fibroblasts into Hb9::GFP+ spinal motor neurons (FIGS. 1A and 1B). An inhibitor of Activin-like kinases 4/5/7 (FIG. 2A) and a Polo-like kinase I (PLK1) inhibitor (FIG. 2B) each increased induced motor neuron formation by 5-10-fold (FIG. 3). In combination, the chemicals increased the rate of induced motor neuron formation by 50-fold (FIG. 3)."}}, "note": "Like-named read-outs stand apart in the source and are kept apart here.", "data": [{"compound": "Cc1cccc(-c2[nH]ncc2-c2ccc3ncccc3n2)n1", "note": "[RepSox]", "values": [{"measurement": "survival of FACS-sorted iMNs", "setting": "[1]; SOD1G93A motor neurons, FIG. 5B", "result": "promotes survival"}, {"measurement": "survival of FACS-sorted iMNs", "setting": "[1]; wild-type (WT) motor neurons, FIG. 5A", "result": "promotes survival"}, {"measurement": "survival of Hb9::GFP+ intermediates", "setting": "[2]", "result": "promotes survival"}, {"measurement": "generation of patient specific human iMNs", "setting": "[3]", "result": "promotes generation"}, {"measurement": "induced neuron (iN) conversion", "setting": "[4]; FIG. 9", "result": "enhances induced neuron (iN) conversion"}, {"measurement": "increase of the number of neurons generated", "setting": "[4]; with versus without the Activin inhibitor", "result": 10, "unit": "fold"}, {"measurement": "effect on iMN conversion by time of administration (pulse treatments)", "setting": "[5]", "result": "improved iMN conversion regardless of the time it is added to the culture medium"}, {"measurement": "effect on iMN conversion by time of administration (pulse treatments)", "setting": "[5]; listed as Activin inhibitor", "result": "effective when administered from days 1-5, 6-10, or 11-15"}]}, {"compound": "CC[C@@H]1C(=O)N(C)c2cnc(Nc3ccc(C(=O)NC4CCN(C)CC4)cc3OC)nc2N1C1CCCC1", "note": "[BI 2536, 4-[[(7R)-8-cyclopentyl-7-ethyl-5-methyl-6-oxo-7H-pteridin-2-yl]amino]-3-methoxy-N-(1-methylpiperidin-4-yl)benzamide]", "values": [{"measurement": "effect on iMN conversion by time of administration (pulse treatments)", "setting": "[5]", "result": "improved conversion only during days 6-10"}, {"measurement": "effect on iMN conversion by time of administration (pulse treatments)", "setting": "[5]; listed as PLK1 inhibitor", "result": "only active during days 6-10"}]}]}
